These are literature values, as cited in patent US20210177818A1, “Antibacterial Formulation for Treating and Prophylactic use in Bacterial, and Fungal Urinary Bladder Infections” (priority 2019, published 2021).

For the data set the following is noted: in acetone, acetic acid, or ethanol.

`CCCCCCCCCCCCCCCC[n+]1ccccc1` [Cetylpyridinium chloride, 1-hexa-decyl pyridinium chloride]: the solubility entry is “insoluble”.
